In US20200000825A1, “METHODS AND COMPOSITIONS FOR TREATING AND PREVENTING VIRAL INFECTIONS” (ENTERIN LABORATORIES, INC., priority 2009, published 2020):

What was measured:
Yellow Fever = assay type: in vivo, Syrian hamsters; settings: squalamine 15 mg/kg/d s.c. qd, -24 h to 6 dpi
[1] = tested on: murine cytomegalovirus (MCMV); assay type: in vivo, Balb/c mice
[2] = tested on: Eastern Equine Encephalitis Virus; assay type: in vivo, hamsters (Syrian golden); settings: 10 mg/kg/day s.c.
Dengue virus = test: Dengue infection of HMEC-1 cells, immunohistochemical detection of viral E protein (Example 11); assay type: cell-based, human
Protocol: Cells were grown on uncoated glass cover-slips following a published protocol (Zamudio-Meza, Castillo-Alvarez et al. 2009). The cells were pretreated with squalamine for 2 hr at 37° C. prior to viral exposure; virus (multiplicity of infection of 3) remained in contact with cells for 30 minutes at 4° C., followed by 90 minutes at 37° C. The medium was then replaced with fresh medium lacking virus and squalamine and maintained at 37° C. for 48 hrs. Cells were fixed and processed for immunohistochemical detection of viral E protein. Viral E protein expression was used to monitor the early stages of infection.

human Hepatitis B virus = test: Hepatitis B virus replication in primary human hepatocytes, PCR (Example 12); assay type: cell-based
Protocol: Primary human hepatocytes were established in a 96 well microtiter plate. Squalamine was then added at concentrations of 2, 6 or 20 μg/ml followed by an inoculum of Hep B virus, and then in culture for 16 hours, after which fresh medium was introduced, and the cells maintained in culture for 14 days. In a second experiment, squalamine at 6 or 20 μg/ml was added to the cells at 24 hours post inoculation for a 16 hour exposure, followed by removal of medium, replacement with fresh medium, and continued culture for 14 days. Viral growth was measured by PCR using viral specific primers and normalized to the total RNA extracted from each corresponding well.

[3] = tested on: human Hepatitis Delta virus; test: Hepatitis Delta virus replication in primary human hepatocytes, PCR (Example 13); assay type: cell-based
Protocol: Primary human hepatocytes were established in a 96 well microtiter plate. Squalamine was then added at concentrations of 20 or 60 μg/ml followed by an inoculum of Hep D virus, and then in culture for 3 hours, after which fresh medium was introduced, and the cells maintained in culture for 7 days. Viral growth was measured by PCR using viral specific primers and normalized to the total RNA extracted from each corresponding well.

RAW264.7 cell line = settings: squalamine 80 μM, 30 minutes; cited from earlier work
[4] = mouse, in vivo, ip, 10 mg/kg/day
[5] = 20 μg/ml, added during initial stages of infection

CC(C)[C@@H](CC[C@@H](C)[C@H]1CC[C@H]2[C@@H]3[C@H](O)C[C@H]4C[C@@H](NCCCNCCCCN)CC[C@]4(C)[C@H]3CC[C@]12C)OS(=O)(=O)O [Squalamine, squalamine]
Survival (Yellow Fever): 70%
Viral titers in lung versus control ([1]; 10 mg/kg/day i.p.): trend toward reduction
Viral titers versus control cohort ([1]; day 7, spleen and liver, 10 mg/kg/day s.c. and i.p. groups): significantly lower
Viral titers, difference between groups ([1]; days 3 to 7, lungs and salivary glands): no significant differences
Effect on viral growth [1, 4]: little effect
Reduction in viral growth [1, 4]: greater than 10 fold
Virus in liver and spleen [1, 4]: undetectable
Virus in liver and spleen versus controls ([1]; mouse, in vivo, sc, 10 mg/kg/day): significantly reduced
Hamsters still alive at the end of treatment ([2]; -24 h to 6 days after infection): 6/10
Plasma concentration of virus, lower than vehicle ([2]; first 3 days post infection): about 100 fold
Inhibition of viral infection (Dengue virus; 46 ug/ml): about 80%
Inhibition of viral infection (Dengue virus; 60 μg/ml and higher): ~100%
Inhibition of viral infection (Dengue virus; 62 ug/ml): 100%
Cell viability (morphology, phase contrast) (Dengue virus; HMEC-1 cells at the effective squalamine concentrations): not diminished
Inhibition of viral infection (Dengue virus; about 40 μg/ml): 80%
Inhibition of viral infection (Dengue virus; concentrations above 40 ug/ml): almost completely inhibited
Inhibition of viral production (human Hepatitis B virus; 2 μg/ml, added at the outset of infection): 14%
Inhibition of viral production (human Hepatitis B virus; 6 μg/ml, added at 24 hours): 30%
Inhibition of viral production (human Hepatitis B virus; 6 μg/ml, added at the onset of infection): 54%
Inhibition of viral production (human Hepatitis B virus; 20 μg/ml, added at 24 hours): 64%
Inhibition of viral production (human Hepatitis B virus; [5]): 83%
Inhibition of viral production [3, 5]: 90%
Cytotoxicity in vitro ([3]; 60 μg/ml, primary human hepatocytes): cytotoxic
Localization of Lact-C2 probe (RAW264.7 cell line): did not alter the localization
Localization of R-pre probe (RAW264.7 cell line): displaced from its residence on the plasma membrane
